Experimental data published in patent US20050090398A1, “Novel tetrazole derivative useful as herbicides” (priority 2002, published 2005).

Key:
paddy field weeds = assay: Test for herbicidal effect against paddy field weeds; assay type: in vivo; details: 0.25 kg/ha active component, applied to water surface 5 days after rice transplantation, examined after 3 weeks
Procedure: (§1) Preparation of formulation of the active compound • Carrier: Acetone 5 parts by weight • Emulsifier: Benzyloxy polyglycol ether 1 part by weight
(§2) A formulation of an active substance is obtained as an emulsifiable concentrate by mixing 1 part by weight of the active compound with the above-mentioned amount of the carrier and emulsifier. A prescribed amount of the formulation is diluted with water.
(§3) In a green house 3 seedlings of paddy rice (variety: Nihonbare) of 2.5 leaf stage (15 cm tall) were transplanted in a 500 cm^2 pot filled with paddy field soil. Then seeds or tubers of Echinochloa crusgalli, Cyperus difformis L., Scirpus juncoides Roxburgh, Monochoria vaginalis Presl, broad-leaved weeds (Lindernia Procumbens Philcox, Rotala indica Koehne, Elatine triandra Schk, Ammannia multiflora Roxb., Dopatrium junceum Hammilt etc.), Cyperus serotinus Rottboel and Sagittaria pygmaea Miq were inoculated and water was poured to a depth of about 2-3 cm. 5 days after the rice transplantation a prescribed, diluted solution of each formulation of active compound prepared according to the aforementioned preparation method was applied to the surface of water. After the treatment the water depth of 3 cm was maintained and the herbicidal effect was examined after 3 weeks from the treatment. The herbicidal effect was rated 100% in the case of complete death and as 0% in the case of no herbicidal effect.

transplanted paddy rice = assay: Paddy field test: safety to transplanted paddy rice; assay type: in vivo, paddy rice (variety: Nihonbare); details: 0.25 kg/ha active component, applied to water surface 5 days after rice transplantation, examined after 3 weeks
Procedure: as §1, §2, §3

Setaria viridis = assay: Test of post-emergence foliage treatment against field weeds; assay type: in vivo; details: post-emergence foliage treatment at 2-leaf stage, 2.0 kg/ha effective component, examined 3 weeks after treatment
Procedure: as §1, §2
(§4) In a green house, seeds of Echinochloa crusgalli, Setaria viridis, Amaranthus retro-flexus and Polygonum were sown in a 120 cm^2 pot filled with field soil and covered with soil. 10 days after the sowing and soil covering (weeds were 2-leaf stage in average) a diluted solution of the prescribed chemical amount prepared in the same manner as in the above-mentioned Test Example 1 was spread uniformly on the foliage of the test plants in each test pot. The herbicidal effect was examined 3 weeks after the treatment.

Polygonum = assay: as above; assay type: in vivo; details: post-emergence foliage treatment at 2-leaf stage, 2.0 kg/ha effective component, examined 3 weeks after treatment
Procedure: as §1, §2, §4

Amaranthus retroflexus = assay: as above; assay type: in vivo; details: post-emergence foliage treatment at 2-leaf stage, 2.0 kg/ha effective component, examined 3 weeks after treatment
Procedure: as §1, §2, §4

Echinochloa crusgalli = assay: as above; assay type: in vivo; details: post-emergence foliage treatment at 2-leaf stage, 2.0 kg/ha effective component, examined 3 weeks after treatment
Procedure: as §1, §2, §4

Row | Compound | melting point [°C] | herbicidal effect against paddy field weeds (paddy field weeds) | safety to the transplanted paddy rice (transplanted paddy rice) | also measured
1 | O=C1CCCC(Sc2ccccc2)=C1C(=O)c1ccc(Cl)c(OCCn2cnnn2)c1Cl | 64 to 70 | – | – | –
2 | O=C1CCCC(Cl)=C1C(=O)c1ccc(Cl)c(OCCn2cnnn2)c1Cl | 122 to 124 | – | – | –
3 | O=C1CCCC(Sc2ccccc2)=C1C(=O)c1ccc(Cl)c(OCCn2cnnn2)c1Cl [compound 219] | – | sufficient herbicidal effect | safety to the transplanted paddy rice | –
4 | Cc1nnn(Cc2c(S(C)(=O)=O)ccc(C(=O)C3C(=O)CCCC3=O)c2Cl)n1 [compound 2364] | – | sufficient herbicidal effect | safety to the transplanted paddy rice | herbicidal activity against Setaria viridis (Setaria viridis): 90%; herbicidal activity against Polygonum (Polygonum): 90%; herbicidal activity against Amaranthus retroflexus (Amaranthus retroflexus): 90%; herbicidal activity against Echinochloa crusgalli (Echinochloa crusgalli): 90%
5 | O=C(c1ccc(Cl)c(OCCn2cnnn2)c1Cl)C1C(=O)C2CCC(C2)C1=O (centres unmarked) [compound 217] | – | sufficient herbicidal effect | safety to the transplanted paddy rice | –
6 | Cc1cccc(C)c1SC1=C(C(=O)c2ccc(S(C)(=O)=O)c(Cn3ncnn3)c2Cl)C(=O)CCC1 [compound 2335] | – | sufficient herbicidal effect | safety to the transplanted paddy rice | –
